Source: patent US6486175B1, “Diester prodrugs of a decahydroisoquinoline-3-carboxylic acid” (Eli Lilly and Company, priority 1999, dated 2002)

Columns and labels:
[1] = Pharmacokinetic parameters of Compound A in Fischer Rats after a 10 mg/kg dose; format: in vivo; settings: rat, iv, plasma Compound A
Protocol: (§1) The following in vivo data, in rats, dogs and monkeys, exemplify the surprising improvement in bioavailability of the diester prodrugs of the present invention over the diacid of 3S,4aR,6S, 8aR-6-(((4-carboxy)phenyl)methyl)1,2,3,4,4a,5,6,7,8,8a-decahydroisoquinoline-3-carboxylic acid. Percent bioavailability is determined using the following equation: [formula]
(§2) wherein AUC represents the area under the curve, p.o. represents oral dose, and i.v. represents intravenous dose.
Tables 1 and 2 below summarize the pharmacokinetic parameters found for Compounds A and B following 10 mg/kg administration (i.v. or p.o.) to Beagle Dogs and Fischer Rats respectively.

[2] = Bioavailability in Cynomolgus Monkeys: plasma pharmacokinetics of Compound A after i.v./p.o. dosing; settings: cynomolgus monkey, in vivo
Protocol: as §1, §2
Four female monkeys were administered an oral and iv dose of compound A (oral: 10 mg/kg; iv: 1 mg/kg) to determine oral bioavailability. The same animals were also administered an oral 10 mg/kg dose of compound B. The plasma concentrations of compound A were determined by LC/MS/MS.
Four female cynomolgus monkeys were given a single iv dose of compound A (1 mg/kg) on day 0, a single oral dose of compound A (10 mg/kg) on day 6 and a single oral dose of compound B (10 mg/kg) on day 10. Blood was collected at 0.5, 1, 2, 3, 4, 5, 6 and 8 hours post dose for oral dosing and 0.167, 0.33, 0.67, 1, 1.5, 2, 3 and 4 hours post dose for iv dosing. Dosing solutions for compound A and compound B were prepared in water. […] Measurable levels of drug (>10 ng/ml) were still present 8 hours post dose. […] Bioavailability was estimated at 34.8%.

[3] = Bioavailability in Dogs: plasma pharmacokinetics of Compound A after i.v./p.o. dosing; format: in vivo; settings: both sexes, dog, iv, Beagle dogs, 10 mg/kg
Protocol: as §1, §2
Beagle dogs (2 male and 1 female) were administered an oral and iv dose of 3S,4aR,6S,8aR-6-(((4-carboxy)phenyl)methyl)-1,2,3,4,4a,5,6,7,8,8a-decahydroisoquinoline-3-carboxylic acid (10 mg/kg) to determine oral bioavailability. The same three dogs were also administered an oral 10 mg/kg dose of compound 3S,4aR,6S,8aR-6-(((4-carboxy)phenyl)methyl)-1,2,3,4,4a,5,6,7,8,8a-decahydroisoquinoline-3-carboxylic acid, diethyl ester, to determine whether the prodrug would increase bioavailability. The plasma concentrations of 3S,4aR,6S,8aR-6-(((4-carboxy)phenyl)methyl)-1,2,3,4,4a,5,6,7,8,8a-decahydroisoquinoline-3-carboxylic acid were determined by LC/MS/MS. […]

SMILES	AUC [1]	Cmax [1]	levels of drug in plasma at 0.5 hr ([2]; po, 10 mg/kg)	AUC ([2]; female, iv, 1 mg/kg)	Cmax ([2]; female, iv, 1 mg/kg)	clearance ([2]; female, iv, 1 mg/kg)	half-life ([2]; female, iv, 1 mg/kg)	% Bioavail ([2]; female, po, 10 mg/kg)	AUC ([2]; female, po, 10 mg/kg)	Cmax ([2]; female, po, 10 mg/kg)	Improvement ([2]; female, po, 10 mg/kg)	Tmax ([2]; female, po, 10 mg/kg)	concentration at 8 h ([2]; female, po, 10 mg/kg)	AUC [3]	Cmax [3]	plasma levels of compound B (unchanged prodrug) ([2]; po, 10 mg/kg)	increase in the bioavailability ([2]; female, po, 10 mg/kg)
O=C(O)c1ccc(C[C@H]2CC[C@H]3CN[C@H](C(=O)O)C[C@H]3C2)cc1 [Compound A, 3S,4aR,6S,8aR-6-(((4-carboxy)phenyl)methyl)-1,2,3,4,4a,5,6,7,8,8a-decahydroisoquinoline-3-carboxylic acid]	2410 ng·h/mL	6280 ng/mL	measurable levels of drug were detected	1190 ng·h/mL	1920 ng/mL	14 mL/min/kg	42 min	11.1%	1,320 ng hr/mL	127 ng/mL	1 X	60 min	> 10 ng/mL	41400 ng·h/mL	28800 ng/mL	–	–
CCOC(=O)c1ccc(C[C@H]2CC[C@H]3CN[C@H](C(=O)OCC)C[C@H]3C2)cc1.Cl [Compound B, 3S,4aR,6S, 8aR-6-(((4-carboxy)phenyl)methyl)-1,2,3,4,4a,5,6,7,8,8a-decahydroisoquinoline-3-carboxylic acid HCl, diethyl ester]	–	–	–	–	–	–	–	34.8%	4,149 ng hr/mL	–	3.1X	–	–	–	–	No detectable plasma levels	3.1 fold
